From US10047051B2, “Substituted pyridines and method of use” (AbbVie S.á{acute over (.)}r.l., priority 2015, dated 2018)

Assays:
Format in all cases: cell-based
CFTR ΔF508 = target: T1, CFTR ΔF508 (Homo sapiens, UniProt P13569, DEL508-508); assay: TECC assay, primary bronchial epithelial cells, CFTR ΔF508; conditions: primary bronchial epithelial cells of CF patients homozygous for CFTR ΔF508, treated with 3 μM VX809, increase in Isc after forskolin
T1 construct: host or cells: primary human bronchial epithelial cells from CF patients homozygous for ΔF508, pre-treated with VX809
T1 sequence (P13569 with tags, fused parts or gaps DEL508-508): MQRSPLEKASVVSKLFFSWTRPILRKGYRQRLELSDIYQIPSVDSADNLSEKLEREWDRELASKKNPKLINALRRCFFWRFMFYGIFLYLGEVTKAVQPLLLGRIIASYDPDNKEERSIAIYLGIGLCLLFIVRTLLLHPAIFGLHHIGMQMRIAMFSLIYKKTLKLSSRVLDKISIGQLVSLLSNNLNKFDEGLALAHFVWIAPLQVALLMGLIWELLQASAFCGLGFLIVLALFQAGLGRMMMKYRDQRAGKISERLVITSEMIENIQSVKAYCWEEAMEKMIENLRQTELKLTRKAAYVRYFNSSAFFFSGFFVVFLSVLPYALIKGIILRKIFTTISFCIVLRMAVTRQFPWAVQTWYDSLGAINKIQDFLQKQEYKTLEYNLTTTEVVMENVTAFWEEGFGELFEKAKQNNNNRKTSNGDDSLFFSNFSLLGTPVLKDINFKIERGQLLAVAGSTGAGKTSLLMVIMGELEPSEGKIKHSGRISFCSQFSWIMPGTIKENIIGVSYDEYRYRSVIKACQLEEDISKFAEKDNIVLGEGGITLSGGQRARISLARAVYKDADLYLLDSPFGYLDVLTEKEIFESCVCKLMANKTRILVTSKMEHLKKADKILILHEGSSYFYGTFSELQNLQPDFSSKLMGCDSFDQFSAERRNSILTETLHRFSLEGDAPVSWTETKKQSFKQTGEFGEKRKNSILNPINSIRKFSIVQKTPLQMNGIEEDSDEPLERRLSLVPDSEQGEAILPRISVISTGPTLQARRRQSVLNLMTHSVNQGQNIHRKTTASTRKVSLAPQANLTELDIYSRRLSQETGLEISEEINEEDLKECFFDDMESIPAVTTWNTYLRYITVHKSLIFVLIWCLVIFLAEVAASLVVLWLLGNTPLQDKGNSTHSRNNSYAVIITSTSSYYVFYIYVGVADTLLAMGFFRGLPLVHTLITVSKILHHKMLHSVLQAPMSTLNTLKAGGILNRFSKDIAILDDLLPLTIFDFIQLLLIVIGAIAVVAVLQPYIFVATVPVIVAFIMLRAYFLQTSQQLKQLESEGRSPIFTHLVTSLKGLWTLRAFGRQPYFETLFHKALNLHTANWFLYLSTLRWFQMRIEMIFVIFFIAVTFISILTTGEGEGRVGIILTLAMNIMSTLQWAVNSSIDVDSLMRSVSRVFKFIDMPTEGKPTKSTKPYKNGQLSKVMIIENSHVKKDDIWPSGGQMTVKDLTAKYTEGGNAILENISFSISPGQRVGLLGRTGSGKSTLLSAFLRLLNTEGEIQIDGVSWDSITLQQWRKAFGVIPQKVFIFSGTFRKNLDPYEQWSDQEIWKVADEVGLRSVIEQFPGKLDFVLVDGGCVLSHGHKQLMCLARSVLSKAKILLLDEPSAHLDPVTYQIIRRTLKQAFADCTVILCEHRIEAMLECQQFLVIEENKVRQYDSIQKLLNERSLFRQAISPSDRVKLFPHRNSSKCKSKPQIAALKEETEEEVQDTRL
Method: (§1) The TECC (Tranepithelial Clamp Circuit, EP-design) assay measures the functionality of the cystic fibrosis Transmembrane Conductance regulator (CFTR) by measuring the short circuit current (Isc) generated over the basolateral and apical membrane of lung epithelial cells. In TECC the transepithelial potential PD and transepithelial resistance (Rt) are measured in an open circuit and transformed to Isc using Ohm's law. 24 Wells can be measured simultaneously allowing a higher throughput compared to Ussing chambers.
(§2) For this purpose, bronchial epithelial cells isolated from CF patients homozygous for the CFTR ΔF508 mutation (hAEC-CF, Epithelix) are plated on type IV collagen-coated Transwell® supports (Costar). Human airway epithelia are generated by provision of an air-liquid interface for 21 days to form well-differentiated polarized cultures that resemble in vivo pseudo-stratified ciliated epithelium (Fulcher, M. L., Gabriel, S., Burns, K. A., Yankaskas, J. R., Randell, S. H., 2005. Well-differentiated human airway epithelial cell cultures. Methods Mol. Med. 107, 183-206). In the case of the homozygous ΔF508 CFTR samples, the differentiated cells are treated with 3 μM VX809 (2626 South Loop West, Suite 225, Houston, Tex. 77054 USA, Cat n# S1565) to allow sufficient expression of properly folded CFTR protein on the membrane (48 hours basolateral treatment and 24 hours apical treatment), prior to electrophysiological recordings. For heterozygous G551D/ΔF508, differentiated cells are used as such for the recordings.
(§3) Information on the compounds can be retrieved on the homozygous ΔF508 CFTR samples looking at increased CFTR activity when compounds are added in an acute mode or in a chronic mode. On G551D/ΔF508 CFTR heterozygous samples compounds are added in an acute mode to the differentiated cells.
(§4) For the acute mode, for electrophysiological recording, the human airway epithelia are mounted in the TECC heating plate for electrophysiological measurement and kept at 37° C. The epithelia are bathed in a NaCl-Ringer solution (120 mM NaCl, 25 mM NaHCO3, 1.2 mM CaCl2, 1.2 mM MgCl2, 0.8 mM KH2PO4, 0.8 mM K2HPO4, pH 7.4, 5 mM glucose) on both the basolateral and apical sides. Apical amiloride is used to inhibit the endogenous ENaC currents while forkolin is applied on both apical and basolateral side to stimulate CFTR. After forskolin triggering, compounds are added on both sides to test their potential for increasing CFTR gating. Measurements are done during a 20 minute timeframe with recordings every 2 minutes. The increase in Isc is used as a measure for the increased CFTR activity, EC50 values can be generated by measuring impact of different concentrations of compound on Isc on primary cells, for this purpose each transwell is treated with a different compound concentration. Inh-172, an inhibitor specific for CFTR, is used to test the specificity of the tested compounds.
For the chronic mode, the differentiated cells are treated with 3 μM VX809 (2626 South Loop West, Suite 225, Houston, Tex. 77054 USA, Cat n# S1565) and potentiator compounds at different concentrations (48 hours basolateral treatment and 24 hours apical treatment), prior to electrophysiological recordings. For electrophysiological recording, the human airway epithelia are mounted in the TECC heating plate for electrophysiological measurement and kept at 37° C. The epithelia are bathed in a NaCl-Ringer solution (120 mM NaCl, 25 mM NaHCO3, 1.2 mM CaCl2, 1.2 mM MgCl2, 0.8 mM KH2PO4, 0.8 mM K2HPO4, pH 7.4, 5 mM glucose) on both the basolateral and apical sides. Apical amiloride is used to inhibit the endogenous ENaC currents while forkolin is applied on both apical and basolateral side to stimulate CFTR. Measurements are done during a 20 minute timeframe with recordings every 2 minutes. […]

CFTR G551D/ΔF508 = target: T2, CFTR G551D/ΔF508 (Homo sapiens, UniProt P13569, G551D); assay: TECC assay, primary bronchial epithelial cells, CFTR G551D/ΔF508; conditions: primary bronchial epithelial cells heterozygous G551D/ΔF508, acute mode, increase in Isc after forskolin
T2 construct: host or cells: primary human bronchial epithelial cells from CF patients heterozygous G551D/ΔF508, no corrector pre-treatment
T2 sequence (P13569 whole entry F508del/G551D): as the sequence (P13569 with tags, fused parts or gaps DEL508-508) above, with G550D counted along it
Method: as §1, §2, §3, §4
When subjected to this protocol, the following values were obtained. The difference between ΔIsc measured as DMSO (baseline), and the ΔIsc measured with the compound tested.

G551D CFTR = G551D CFTR (Homo sapiens, UniProt P13569, G551D); assay: TECC assay, FRT-CFTR G551D protocol; conditions: FRT cells stably transfected with G551D CFTR, high expression cells, increase in Isc after forskolin
Chain of G551D CFTR (P13569 whole entry G551D): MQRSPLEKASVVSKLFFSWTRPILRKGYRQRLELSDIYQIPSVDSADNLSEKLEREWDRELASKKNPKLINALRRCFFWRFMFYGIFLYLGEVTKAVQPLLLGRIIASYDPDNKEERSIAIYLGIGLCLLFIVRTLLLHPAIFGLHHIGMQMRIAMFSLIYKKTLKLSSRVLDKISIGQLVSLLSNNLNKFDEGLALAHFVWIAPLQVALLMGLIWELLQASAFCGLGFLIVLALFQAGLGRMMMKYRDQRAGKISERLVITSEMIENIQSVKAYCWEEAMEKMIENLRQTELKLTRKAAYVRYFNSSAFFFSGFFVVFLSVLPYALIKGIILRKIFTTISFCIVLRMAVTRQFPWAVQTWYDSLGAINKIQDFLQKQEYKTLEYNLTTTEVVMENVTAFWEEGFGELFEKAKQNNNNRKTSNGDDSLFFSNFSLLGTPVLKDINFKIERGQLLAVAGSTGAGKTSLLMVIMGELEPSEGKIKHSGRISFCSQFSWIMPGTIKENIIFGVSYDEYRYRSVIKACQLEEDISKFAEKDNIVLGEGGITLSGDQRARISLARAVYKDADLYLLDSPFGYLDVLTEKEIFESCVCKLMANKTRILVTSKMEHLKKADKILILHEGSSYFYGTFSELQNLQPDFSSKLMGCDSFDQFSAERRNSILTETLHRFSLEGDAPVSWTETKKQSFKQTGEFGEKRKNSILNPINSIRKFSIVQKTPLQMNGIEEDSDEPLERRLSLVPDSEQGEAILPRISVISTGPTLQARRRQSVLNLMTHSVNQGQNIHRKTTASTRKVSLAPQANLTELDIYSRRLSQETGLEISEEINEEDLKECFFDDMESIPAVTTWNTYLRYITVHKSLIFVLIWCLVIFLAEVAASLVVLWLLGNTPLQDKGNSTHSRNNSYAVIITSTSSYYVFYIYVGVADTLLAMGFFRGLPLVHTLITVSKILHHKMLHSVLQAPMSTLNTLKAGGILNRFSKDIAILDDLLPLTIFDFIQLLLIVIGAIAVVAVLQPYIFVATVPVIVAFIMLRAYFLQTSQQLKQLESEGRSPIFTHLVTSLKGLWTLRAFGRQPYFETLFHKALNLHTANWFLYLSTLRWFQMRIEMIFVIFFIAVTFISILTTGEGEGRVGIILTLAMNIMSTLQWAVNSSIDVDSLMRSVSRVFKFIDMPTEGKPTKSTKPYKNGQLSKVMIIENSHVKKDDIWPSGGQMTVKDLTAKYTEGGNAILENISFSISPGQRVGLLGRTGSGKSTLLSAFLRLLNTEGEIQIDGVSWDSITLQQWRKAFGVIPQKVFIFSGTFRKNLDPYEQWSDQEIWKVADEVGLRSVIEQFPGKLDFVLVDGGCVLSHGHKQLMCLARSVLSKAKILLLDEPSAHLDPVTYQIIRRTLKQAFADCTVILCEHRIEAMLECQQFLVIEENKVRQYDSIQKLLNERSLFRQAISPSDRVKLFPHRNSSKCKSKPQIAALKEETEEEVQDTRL
Method: For G551D recordings, Fischer Rat Thyroid (FRT) cells stably transfected with G551D CFTR (a low CFTR-G551D expressing cell line and a high expressing CFTR-G551D cell line from Rosalind Franklin University of Medicine and Science, North Chicago, Ill.) are plated on Transwell® supports (Costar 6.5 mm diameter, 0.4 μm pore size). The cells are grown for 8-10 days under liquid-liquid interface conditions prior to electrophysiological readings. For electrophysiological recording, the FRT-G551D cells are mounted in the TECC heating plate for electrophysiological measurement and kept at 37° C. The epithelia are bathed in HEPES buffered culturing medium without FBS on both the basolateral and apical sides. Apical amiloride is used to inhibit the endogenous ENaC currents while forkolin is applied on both apical and basolateral side to stimulate CFTR. After forskolin triggering, compounds are added on both sides to test their potential for increasing CFTR gating. Measurements are done during a 10 minute timeframe with recordings every 2 minutes. The increase in Isc is used as a measure for the increased CFTR activity, EC50 values can be generated by measuring impact of different concentrations of compound on Isc on the cells, for this purpose each transwell is treated with a different compound concentration. Inh-172, an inhibitor specific for CFTR, is used to test the specificity of the tested compounds.

| SMILES | EC50 (CFTR ΔF508) [µM] | EC50 (CFTR G551D/ΔF508) [µM] | EC50 (G551D CFTR) [µM] |
| --- | --- | --- | --- |
| Nc1cc(S(=O)(=O)c2ccc(OC(F)(F)F)cc2)cnc1C(=O)NC[C@@H](O)C(F)(F)F [Compound 37, 3-amino-N-[(2R)-3,3,3-trifluoro-2-hydroxypropyl]-5-{[4-(trifluoromethoxy)phenyl]sulfonyl}pyridine-2-carboxamide] | 0.0132 | 0.232 |  |
| Nc1cc(S(=O)(=O)c2ccc(OC(F)(F)F)cc2)cnc1C(=O)NCCO [Compound 14, 3-amino-N-(2-hydroxyethyl)-5-{[4-(trifluoromethoxy)phenyl]sulfonyl}pyridine-2-carboxamide] |  | 5.3 | 11.7 |
| Nc1cc(S(=O)(=O)c2ccc(OC(F)(F)F)cc2)cnc1C(=O)NC[C@H](O)C(F)(F)F [Compound 26, 3-amino-N-[(2S)-3,3,3-trifluoro-2-hydroxypropyl]-5-{[4-(trifluoromethoxy)phenyl]sulfonyl}pyridine-2-carboxamide] | 0.024 |  | 1.23 |
| C[C@H](O)CNC(=O)c1ncc(S(=O)(=O)c2ccc(C(F)(F)F)cc2)cc1N [Compound 100, 3-amino-N-[(2S)-2-hydroxypropyl]-5-{[4-(trifluoromethyl)phenyl]sulfonyl}pyridine-2-carboxamide] |  | 2.38 | 1.19 |
| C[C@H](O)CNC(=O)c1ncc(S(=O)(=O)c2ccc(OC(F)(F)F)cc2)cc1N [Compound 21, 3-amino-N-[(2S)-2-hydroxypropyl]-5-{[4-(trifluoromethoxy)phenyl]sulfonyl}pyridine-2-carboxamide] | 0.0355 | 0.847 | 1.63 |
| Nc1cc(S(=O)(=O)c2ccccc2OC(F)(F)F)cnc1C(=O)NC[C@@H](O)C(F)(F)F [Compound 81, 3-amino-N-[(2R)-3,3,3-trifluoro-2-hydroxypropyl]-5-{[2-(trifluoromethoxy)phenyl]sulfonyl}pyridine-2-carboxamide] | 0.00949 |  |  |
| COC[C@H](O)CNC(=O)c1ncc(S(=O)(=O)c2ccc(C(F)(F)F)cc2)cc1N [Compound 70, 3-amino-N-[(2R)-2-hydroxy-3-methoxypropyl]-5-{[4-(trifluoromethyl)phenyl]sulfonyl}pyridine-2-carboxamide] | 0.0388 | 3.52 | 0.622 |
| Nc1cc(S(=O)(=O)c2ccc(F)cc2)cnc1C(=O)NC[C@@H](O)C(F)(F)F [Compound 36, 3-amino-5-[(4-fluorophenyl)sulfonyl]-N-[(2R)-3,3,3-trifluoro-2-hydroxypropyl]pyridine-2-carboxamide] | 0.063 | 1.01 | 0.735 |
| Nc1cc(S(=O)(=O)c2ccc(OC(F)(F)F)cc2)cnc1C(=O)N1CC(F)(F)C1 [Compound 40, (3-amino-5-{[4-(trifluoromethoxy)phenyl]sulfonyl}pyridin-2-yl)(3,3-difluoroazetidin-1-yl)methanone] | 0.0622 | 0.443 |  |
| Nc1cc(S(=O)(=O)c2ccc(OC(F)(F)F)cc2)cnc1C(=O)NCC(O)COCC1CC1 (stereo not shown) [Compound 31, 3-amino-N-[3-(cyclopropylmethoxy)-2-hydroxypropyl]-5-{[4-(trifluoromethoxy)phenyl]sulfonyl}pyridine-2-carboxamide] | 0.0484 | 0.632 | 0.824 |
| Nc1cc(S(=O)(=O)c2ccc(OC(F)(F)F)cc2)cnc1C(=O)NCC(O)C(F)(F)F (stereo not shown) [Compound 6, 3-amino-N-(3,3,3-trifluoro-2-hydroxypropyl)-5-{[4-(trifluoromethoxy)phenyl]sulfonyl}pyridine-2-carboxamide] | 0.0632 |  | 0.443 |
| Nc1cc(S(=O)(=O)c2ccc(F)cc2)cnc1C(=O)NC[C@H](O)C(F)(F)F [Compound 25, 3-amino-5-[(4-fluorophenyl)sulfonyl]-N-[(2S)-3,3,3-trifluoro-2-hydroxypropyl]pyridine-2-carboxamide] | 0.0386 |  | 1.2 |
| CC(C)(O)CNC(=O)c1ncc(S(=O)(=O)c2ccc(OC(F)(F)F)cc2)cc1N [Compound 1, 3-amino-N-(2-hydroxy-2-methylpropyl)-5-{[4-(trifluoromethoxy)phenyl]sulfonyl}pyridine-2-carboxamide] | 0.0959 |  | 0.645 |
| CC(O)(CNC(=O)c1ncc(S(=O)(=O)c2ccc(OC(F)(F)F)cc2)cc1N)C(F)(F)F (stereo not shown) [Compound 2, 3-amino-N-(3,3,3-trifluoro-2-hydroxy-2-methylpropyl)-5-{[4-(trifluoromethoxy)phenyl]sulfonyl}pyridine-2-carboxamide] | 0.0471 |  |  |
| Nc1cc(S(=O)(=O)c2ccc(OC(F)(F)F)cc2)cnc1C(=O)N1CC(O)C1 [Compound 32, (3-amino-5-{[4-(trifluoromethoxy)phenyl]sulfonyl}pyridin-2-yl)(3-hydroxyazetidin-1-yl)methanone] | 0.0729 |  |  |
